Data set [1] is described as follows: Population PK analysis of plasma and urine data, study ACH443-011, 1×20 mg tablet PO. To be noted: human, in vivo. Here is the method: The PK model created included an individual compartmental PK analysis using ADAPT-II® and Population PK analysis using an iterative two-stage population modeling technique (IT2S®) of plasma and urine data from a study of healthy subjects, n=29, 1×20 mg tablet PO (ACH443-011). FIG. 1 illustrates the PK model of Elvucitabine according to a three compartment model characterized by two absorption peaks, each associated with a lag time and a first order absorption rate constant.
FIG. 2 illustrates an example of individual fit using a Population PK analysis (IT2S).

A short description of data set [2]: Therapeutic window from PK versus PD relationship. To be noted: human. The text has this: Pharmacokinetics and pharmacodynamics modeling was used to explore potential dosing regimens for Elvucitabine. A pharmacokinetics (PK) model was developed to describe both the plasma concentration-time data and excreted urinary amounts from previously completed studies with Elvucitabine. With the PK model in hand and pharmacodynamics (PD) results of previously completed studies, the relationship of PK and PD from an efficacy and toxicity standpoint is obtained. From the results of the PK and PD studies, a therapeutic window of Elvucitabine is defined and simulated dosing regimens ranging from 5 mg BID to 100 mg Q1 week were explored using ADAPT II® Pharmacokinetic and Pharmacodynamic Systems Analysis Software. From the simulated dosing regimen results, ten dosing regimens were identified allowing maintenance therapy with Elvucitabine at levels effective against both HIV and HBV while avoiding bone toxicity.
From the foregoing results, a therapeutic window of Elvucitabine was identified. It has been determined that a 5 mg QD dose is effective for HBV and, therefore, a plasma AUCss/24 of 300 μg·h/L was identified as the efficacy threshold.

Consider one molecule from patent US7741334B2, “Low dose therapy for treating viral infections” (priority 2004, dated 2010).

Bounds are passed on as bounds.

On to `Nc1nc(=O)n([C@H]2C=C[C@@H](CO)O2)cc1F` [Elvucitabine, 4-amino-5-fluoro-1-((2R,5S)-5-(hydroxymethyl)-2,5-dihydrofuran-2-yl)pyrimidin-2(1H)-one], for which, in data set [1], the “apparent volume of distribution (VSS)” value amounted to 1600 L and the free fraction (fraction unbound) came to 0.396. Also, in data set [2], the Cmax was over 40 ng/mL and the “central compartment (plasma) Cmin at onset of toxicity” value is at least 23 ng/mL.

Broadly, the fraction unbound is the share of the substance not bound to proteins or other matrix. Lower therefore signals extensive binding. The term Cmax denotes the maximum level reached in the sampled fluid or tissue.
